Reference: patent US11136297B2, “Compositions and methods for treating cancer” (THE REGENTS OF THE UNIVERSITY OF CALIFORNIA, priority 2016, dated 2021)

Columns and labels:
H-Ras(M72C) GDP = H-Ras(M72C) GDP (Homo sapiens, UniProt P01112, M72C); assay: Competition labeling experiments (Compound 3 vs Compound 4); format: binding; parameters: Labeling studies were conducted using the 1-166 H-Ras(M72C) construct containing all endogenous cysteines; His6; made in house; host or cells: Escherichia coli BL21(DE3); settings: 20 μM Compound 3, varying Compound 4 (0-180), 4 μM H-Ras(M72C) GDP
Description: Competition Labeling Experiments.
[…] were made in Gel Filtration buffer (20 mM HEPES (pH 7.5), 150 mM NaCl) with no added reductant at room temperature. The final concentrations of each reagent were as follows: […], 1 mM MgCl2, […], X mM Compound 4, and a total DMSO concentration of 4% by volume. Compound 4 was varied from OX (0 mM), 1× (20 mM), 3× (60 mM), and 9× (180 mM) respectively. Adding the desired volume of Gel Filtration Buffer, MgCl2, DMSO, and 10 mM compound stocks of Compounds 3 and 4 was done first and mixed thoroughly before protein was added. Reactions were started by the addition and gentle mixing by pipette of concentrated Ras stocks diluted into the master reaction down to […]. Each reaction was set in triplicate and allowed to react at room temperature in the dark (either covered in aluminum foil or in a bench drawer) until the desired time point was reached. At each time point, […] aliquots of each 200 mL master reaction was sampled and quenched by the addition of […] of 2% formic acid (also made in Gel Filtration Buffer). This 25 mL quenched sample was then analyzed by LC/MS and the remaining master reaction was allowed to continue reacting after gentle mixing by pipette. The percent modification was analyzed by electrospray mass spectrometry using a Waters Acquity UPLC/ESI-TQD with a 2.1×50 mm Acquity UPLC BEH300 C4 column.

WT H-Ras = target: T1, WT H-Ras (Homo sapiens, UniProt P01112); assay: BioLayer interferometry (BLI) reversible binding
T1 construct: made in house; host or cells: Escherichia coli BL21(DE3)

K-Ras(M72C) GDP = target: T2, K-Ras(M72C) GDP (Homo sapiens, UniProt P01116, M72C); assay: βME50 determination of tethering fragments; format: binding; settings: relative to 2C07
T2 construct: Untagged recombinant 1-169 K-Ras(M72C) GDP; His6 (cleaved yes); made in house; host or cells: Escherichia coli BL21(DE3)
Description: (§1) A tethering library of 960 disulfides were screened against 1-169 K-Ras(M72C) GDP using intact protein mass spectrometry to monitor percent modification (See Methods, and FIG. 37). […] To better prioritize tethering fragments, a βME50 value (the concentration of βME needed to reduce disulfide fragment modification to 50%) was determined for each compound. A higher βME50 value corresponds to a better fragment as it can bind with increasing concentrations of competitive thiol (Erlanson et al., 2004; Yang et al., 2009).
We next explored small chemical modifications to 2C07.

1-169 K-Ras(M72C) GDP = target: T3, 1-169 K-Ras(M72C) GDP (Homo sapiens, UniProt P01116, M72C); assay: Disulfide tethering screen, percent modification by intact protein mass spectrometry; format: binding; settings: screening βME 1 mM
T3 construct: Untagged recombinant 1-169 K-Ras(M72C) GDP; His6 (cleaved yes); made in house; host or cells: Escherichia coli BL21(DE3)
Text: In some embodiments, a library of disulfide compounds may be screened against a cysteine-containing protein in the presence of a reducing agent such as β-mercaptoethanol (BME). Compounds with complementary binding contacts with a region of the protein near the cysteine may shift the disulfide exchange equilibrium away from BME modification of the cysteine thiol and enhance the ratio of the hit ligand bound to the cysteine. The resulting mass change of the protein can be readily detected by mass spectrometry, and the percentage of modified protein can be used as a measure of potency. Compounds which exchange with the cysteine without conferring affinity should exchange with reducing agent equally well and will not shift the equilibrium toward protein modification. The potency of various compounds at a given concentration of BME may be compared by calculating the dose-response 50 (DR50), which is the concentration of compound at which the protein becomes 50% modified.
as §1, with “A higher βME50 value corresponds to a better fragment as it can bind with increasing concentrations of competitive thiol (Erlanson et al., 2004; Yang et al., 2009).” left out

[1] = target: T4, full-length wild-type K-Ras (Homo sapiens, UniProt P01116); assay: Disulfide fragment labeling of full-length wild-type K-Ras (Cys 72 selectivity); format: binding; settings: wild-type K-Ras contains 4 native cysteine residues
T4 construct: His6; made in house; host or cells: Escherichia coli BL21(DE3)

H-Ras(M72C) GppNHp = H-Ras(M72C) GppNHp (Homo sapiens, UniProt P01112, M72C); assay: βME50 and percent labeling of tethering fragments, GppNHp state; format: binding; parameters: Labeling studies were conducted using the 1-166 H-Ras(M72C) construct containing all endogenous cysteines; His6; made in house; host or cells: Escherichia coli BL21(DE3); settings: disulfide tethering at Cys 72
Description: FIG. 32. […] Percent labeling against H-Ras(M72C) GDP and GppNHp at the screening βME concentration (1 mM) are graphed.
as §1

[2] = target: T5, H-Ras(M72C) GppNHp binding to Raf-1-RBD (Homo sapiens, UniProt P01112, M72C); assay: Ras GppNHp in vitro pull down by His6-MBP-Raf-1-RBD; settings: H-Ras(M72C) pre-labeled with compound
T5 construct: and H-Ras (residues 1-166) were transformed into Escherichia coli; His6; made in house; host or cells: Escherichia coli BL21(DE3)
Description: Ras GppNHp In Vitro Pull Down Assay by His6-MBP-Raf-1-RBD. For each His6-MBP-Raf-1-RBD in vitro pull down the total volume was 500 μL. Each reaction had the following final composition: Either 20, 80, 200, 400, or 800 nM Ras GppNHp (from 0.2 mg/mL Ras stock), 75 nM BSA (2.5 μg, 5 μL of 0.5 mg/mL BSA stock), 200 nM of His6-MBP-Raf-1-RBD (5.3 μg, 1.2 μL of 4.38 mg/mL stock of His6-MBP-Raf-1-RBDwitt), and Raf Pull Down Buffer to volume (25 mM Tris (pH 7.2), 150 mM NaCl, 5 mM MgCl2, 1% NP-40, 5% glycerol, 20 mM imidazole). Samples were then mixed by gentle rotation at 4° C. for 30 min. While equilibrating, add 50 μL Ni-NTA slurry (Qiagen) to a cellulose acetate spin cup and spin at 5,000 rpm on a tabletop centrifuge for 30 seconds. Wash the beads with 400 μL of Raf Pull Down Buffer to wash away bead storage buffer. Before adding each pull down solution, take 10 μL and save as a loading control sample. To each spin cup filled with washed Ni-NTA beads, add the remaining equilibrated pull down solution, seal the spin cup with parafilm and let rotate at 4° C. for 30 more minutes. After mixing, centrifuge the sample for 30 seconds at 5,000 rpm. Toss flow through. Wash the beads X 5 with 400 μL of Raf Pull Down Buffer. After last wash, centrifuge one last time to remove any excess buffer stuck to the beads. […] Blots were read out using LICOR compatible secondary antibodies. […]

[3] = target: T6, H-Ras(M72C) bound to either GDP or GppNHp (Homo sapiens, UniProt P01112, M72C); assay: Electrophile labeling experiments (percent modification by whole protein LC/MS); format: binding; settings: 4 μM H-Ras(M72C) GDP or GppNHp, 100 μM electrophile, 24 hours
T6 construct: Labeling studies were conducted using the 1-166 H-Ras(M72C) construct containing all endogenous cysteines; His6; made in house; host or cells: Escherichia coli BL21(DE3)
Description: Electrophile Labeling Experiments.
Each reaction was analyzed in a 96 well plate format for analysis by LC/MS. Total reaction volumes were 25 μL for single time point labeling experiments and 200 uL for full 24-hour time courses. 25 μL reactions were made in the wells of a V-bottom 96 well plate and 200 uL reactions were made in 1.25 mL eppendorf tubes. All labeling reactions were conducted in Gel Filtration Buffer (20 mM HEPES (pH 7.5), 150 mM NaCl) with no added reductant at room temperature. […] Electrophile stocks were made in DMSO at 10 mM, aliquoted, and frozen. Labeling reactions were started by the addition of the desired volume of 10 mM electrophile stock and mixed thoroughly by pipette. General screening of new electrophiles was done at 100 μM electrophile in triplicate and sampled as a single time point after 24 hours of incubation. For Compound 3, labeling time courses were conducted at 20 μM compound with sampling done every 2 hours for the first 10 hours of incubation and continued after overnight incubation until the protein was fully modified. Reactions were allowed to sit at room temperature in the dark (either covered in aluminum foil or in a bench drawer) until the desired time point was reached. For 24-hour single point labeling experiments, the reaction was directly sampled from the 96 well plate and analyzed by LC/MS. For experiments with multiple time points, 22.5 μL aliquots of the 200 μL master reaction were sampled and quenched by the addition of 2.5 μL of 2% formic acid (also made in Gel Filtration Buffer). This 25 μL quenched sample was then analyzed by LC/MS and the remaining master reaction was allowed to continue reacting after gentle mixing by pipette. The percent modification was analyzed by electrospray mass spectrometry using a Waters Acquity UPLC/ESI-TQD with a 2.1×50 mm Acquity UPLC BEH300 C4 column.

[4] = target: T5, H-Ras(M72C) GppNHp binding to Raf-1-RBD; assay: Raf-1-RBD pull-down of labeled H-Ras(M72C) GppNHp; settings: H-Ras(M72C) GppNHp pre-labeled with compound; various concentrations of H-Ras
Description: FIGS. 29A-29D. […] FIG. 29D: Reconstruction of Ras cycle is achieved by inducing nucleotide exchange of 100 nM Ras by various concentrations of SOS^cat for either 1 or 2 hours and subsequent pull-down by Raf-1-RBD.
FIGS. 33A-33D. […] In FIG. 33B) through FIG. 33D), normalized pull-down signals are shown below the blot. S. E. M for each signal, number of replicates, and […] for each comparative Standard T-Test are summarized herein (see Tables 33B, 33C, and 33D). […] Comparative statistics were done for normalized pull-down signals between protein constructs of the same condition (i.e. in FIG. 33B) and FIG. 33C), column 1 for unlabeled and 1 for labeled protein, 2 for unlabeled and 2 for labeled, and so on were statistically compared, and in FIG. 33D) only the +SOS^cat and +GppNHp lanes were compared across protein constructs). FIG. 33A) Cartoon representation of pull down protocol. […] Reported values are quantified pull-down signals normalized to input. FIG. 33B) Cartoon representation of pull down protocol. […] FIG. 33C) Cartoon representation of pull down protocol. […] FIG. 33D) Cartoon representation of pull down protocol. Ras activation is achieved by catalyzing nucleotide exchange by SOS^cat and indirectly reading out activated Ras by subsequent pull down by Raf-1-RBD.

CCC(=O)Nc1cc(Cl)cc(NC(=O)c2cnn(-c3ccc(OC)cc3)c2C(F)(F)F)c1 [Compound 4, N-(3-chloro-5-propionamidophenyl)-1-(4-methoxyphenyl)-5-(trifluoromethyl)-1H-pyrazole-4-carboxamide]
rate of Compound 3 labeling (% labeled per hour) in presence of Compound 4 (H-Ras(M72C) GDP): dose dependent decrease
rate of Compound 3 labeling (% labeled per hour) in presence of Compound 4 (H-Ras(M72C) GDP; listed as compound 4): dose-dependent decrease
reversible binding by BLI (WT H-Ras): unable to detect measurable binding

COc1ccc(-n2ncc(C(=O)NCCCCSSCCN(C)C)c2C(F)(F)F)cc1 [Compound 2C07b, N-(4-((2-(dimethylamino)ethyl)disulfanyl)butyl)-1-(4-methoxyphenyl)-5-(trifluoromethyl)-1H-pyrazole-4-carboxamide]
change in βME50 (K-Ras(M72C) GDP): small decrease

CN(C)CCSSCCCNC(=O)C(=O)c1c[nH]c2ccccc12 [Compound 2B02, N-(3-((2-(dimethylamino)ethyl)disulfanyl)propyl)-2-(1H-indol-3-yl)-2-oxoacetamide]
percent modification (1-169 K-Ras(M72C) GDP): 52.8%
modification of full-length wild-type K-Ras [1]: did not modify
labeling of H-Ras(M72C) GppNHp (H-Ras(M72C) GppNHp): labeled

C=CC(=O)Nc1cccc(NC(=O)c2cnn(-c3ccc(OC)cc3)c2C(F)(F)F)c1 [Compound 2, N-(3-acrylamidophenyl)-1-(4-methoxyphenyl)-5-(trifluoromethyl)-1H-pyrazole-4-carboxamide]
Raf-1-RBD binding (pull down), labeled vs unlabeled H-Ras(M72C) [2]: did not inhibit Raf-1-RBD binding
Percent modification (labeling of Cys 72) [3]: significant increase
Raf-1-RBD binding [4]: do not inhibit Raf RBD binding

C=CC(=O)Nc1ccc(NC(=O)c2cnn(-c3ccc(OC)cc3)c2C(F)(F)F)cc1 [Compound 1, N-(4-acrylamidophenyl)-1-(4-methoxyphenyl)-5-(trifluoromethyl)-1H-pyrazole-4-carboxamide]
Percent modification (labeling of Cys 72) [3]: no detectable labeling

COc1ccc(-n2cc(C(=O)NCCCSSCCN(C)C)cn2)cc1 [Compound 2C07c, N-(3-((2-(dimethylamino)ethyl)disulfanyl)propyl)-1-(4-methoxyphenyl)-1H-pyrazole-4-carboxamide]
change in βME50 (K-Ras(M72C) GDP): drastic decrease
